Values joined by “and” are separate entries in the source; they are usually repeats but may differ in a detail not shown here. Equal entries are not always repeated.
System: WIL2-S
Assay: ADCC LDH release assay, purified NK cells against WIL2-S target cells
Format: cell-based, human
Details: for Percentage of maximum ADCC, rituximab: rituximab 10 μg/mL; for Percentage of maximum ADCC, obinutuzumab: obinutuzumab 10 μg/mL
[1] = Compound B 15.63 nM, FcγRIIIa 158F/V
[2] = Compound B 15.63 nM, FcγRIIIa 158V/V
[3] = Compound B 31.25 nM, FcγRIIIa 158F/V
[4] = Compound B 31.25 nM, FcγRIIIa 158V/V
[5] = Compound B 62.5 nM, FcγRIIIa 158F/F
[6] = Compound B 62.5 nM, FcγRIIIa 158F/V
[7] = Compound B 62.5 nM, FcγRIIIa 158V/V
[8] = Compound B 125 nM, FcγRIIIa 158F/F
[9] = Compound B 125 nM, FcγRIIIa 158F/V
[10] = Compound B 125 nM, FcγRIIIa 158V/V
[11] = Compound B 250 nM, FcγRIIIa 158F/F
[12] = Compound B 250 nM, FcγRIIIa 158F/V
[13] = Compound B 250 nM, FcγRIIIa 158V/V
[14] = Compound B 500 nM, FcγRIIIa 158F/F
[15] = Compound B 500 nM, FcγRIIIa 158F/V
[16] = Compound B 500 nM, FcγRIIIa 158V/V
[17] = Compound B 1000 nM, FcγRIIIa 158F/F, n=2
[18] = Compound B 1000 nM, FcγRIIIa 158F/V, n=2

CC[C@H](Nc1ncnc2[nH]cnc12)c1nc2cccc(F)c2c(=O)n1-c1ccccc1 [Compound B, (S)-2-(1-((9H-purin-6-yl)amino)propyl)-5-fluoro-3-phenylquinazolin-4(3H)-one]
Percentage of maximum ADCC, rituximab (Compound B 7.81 nM, FcγRIIIa 158F/F): 91% and 108%
Percentage of maximum ADCC, rituximab (Compound B 7.81 nM, FcγRIIIa 158F/V): 104% and 110%
Percentage of maximum ADCC, rituximab (Compound B 7.81 nM, FcγRIIIa 158V/V): 100%
Percentage of maximum ADCC, obinutuzumab (Compound B 15.63 nM, FcγRIIIa 158F/F): 80% and 108%
Percentage of maximum ADCC, obinutuzumab [1]: 106% and 109%
Percentage of maximum ADCC, obinutuzumab [2]: 93% and 90%
Percentage of maximum ADCC, rituximab [1]: 100% and 108%
Percentage of maximum ADCC, rituximab [2]: 98% and 101%
Percentage of maximum ADCC, obinutuzumab (Compound B 31.25 nM, FcγRIIIa 158F/F): 85% and 107%
Percentage of maximum ADCC, obinutuzumab [3]: 107%
Percentage of maximum ADCC, obinutuzumab [4]: 95% and 82%
Percentage of maximum ADCC, rituximab [3]: 100% and 104%
Percentage of maximum ADCC, rituximab [4]: 94%
Percentage of maximum ADCC, obinutuzumab [5]: 88% and 108%
Percentage of maximum ADCC, obinutuzumab [6]: 112% and 103%
Percentage of maximum ADCC, obinutuzumab [7]: 98% and 78%
Percentage of maximum ADCC, rituximab [5]: 88% and 108%
Percentage of maximum ADCC, rituximab [6]: 101% and 107%
Percentage of maximum ADCC, rituximab [7]: 96% and 99%
Percentage of maximum ADCC, obinutuzumab [8]: 87% and 110%
Percentage of maximum ADCC, obinutuzumab [9]: 111% and 105%
Percentage of maximum ADCC, obinutuzumab [10]: 94% and 84%
Percentage of maximum ADCC, rituximab [8]: 87% and 108%
Percentage of maximum ADCC, rituximab [9]: 105% and 102%
Percentage of maximum ADCC, rituximab [10]: 95% and 98%
Percentage of maximum ADCC, obinutuzumab [11]: 91% and 109%
Percentage of maximum ADCC, obinutuzumab [12]: 106% and 102%
Percentage of maximum ADCC, obinutuzumab [13]: 99% and 89%
Percentage of maximum ADCC, rituximab [11]: 87% and 109%
Percentage of maximum ADCC, rituximab [12]: 98% and 101%
Percentage of maximum ADCC, rituximab [13]: 95% and 94%
Percentage of maximum ADCC, obinutuzumab [14]: 83% and 104%
Percentage of maximum ADCC, obinutuzumab [15]: 106% and 94%
Percentage of maximum ADCC, obinutuzumab [16]: 92% and 79%
Percentage of maximum ADCC, rituximab [14]: 84% and 105%
Percentage of maximum ADCC, rituximab [15]: 95% and 99%
Percentage of maximum ADCC, rituximab [16]: 91% and 96%
Percentage of maximum ADCC, obinutuzumab [17]: 79% and 103%
Percentage of maximum ADCC, obinutuzumab [18]: 105% and 93%
Percentage of maximum ADCC, rituximab [17]: 80% and 100%
Percentage of maximum ADCC, rituximab [18]: 95% and 88%
Percentage of maximum ADCC, rituximab (Compound B 1000 nM, FcγRIIIa 158V/V, n=2): 87% and 84%
effect on obinutuzumab-mediated ADCC (WIL2-S, E:T=10:1, 4 h, n=9): did not affect
effect on NK-mediated ADCC (varying E:T ratios, antibody 10 μg/mL, n=3): did not affect
